Measurements from patent publication US20250120928A1 (University of Maryland, Baltimore, priority 2021, published 2025).

Experiments:
BMMØs [1] = type: cell-based
Experimental: (§1) Three hours later, cells were stimulated with 100 ng/mL LPS. After 48 hours, cells were lifted using Versene and washed with cold PBS supplemented with 1% FBS and 0.4% 0.5 M EDTA (Quality Biological, Gaithersburg, MD). FcR blocking was performed with purified anti-mouse CD16/32 antibody (#101301) (Biolegend, San Diego, CA) prior to staining with Annexin V-FITC and propidium iodide kit (#640914) (BioLegend, San Diego, CA) for apoptosis and cell death. Cell staining was conducted according to BioLegend protocols for flow cytometry. Flow cytometry data were collected using a Becton Dickinson LSR II or Becton Dickinson Canto II flow cytometer. Flow plots and data processing was done using FCS Express 7 Flow Cytometry De Novo Software (De Novo, Glendale, CA).
as §1, with “After” for “Three hours later, cells were stimulated with 100 ng/mL LPS. After”

[2] = tested on: LPS-stimulated bone marrow macrophages (BMMØ); assay: BMMØ cytokine secretion following LPS stimulation (ELISA, Luminex); type: cell-based, C57BL/6J mice
Experimental: (§2) Three hours later, cells were stimulated with 100 ng/mL LPS. After 48 hours, cell culture supernatants were collected and analyzed by enzyme-linked immunosorbent assays (ELISA) (BioLegend, San Diego, CA) to measure murine IL-6 and TNFα. MAGPIX Luminex bead-based multiplex ELISA (Thermo Fisher Scientific, Waltham, MA) measured for 7 various cytokines and chemokines, and data were analyzed using the Luminex xPONENT software (Millipore) as per manufacturer's instructions. The 7-plex panel included murine IFNβ, IL-10, IL-6, IL-1β, MCP-1 (CCL2), TNFα, and GROα (CXCL1).
as §2, with “After” for “Three hours later, cells were stimulated with 100 ng/mL LPS. After”, “(Milli-pore)” for “(Millipore)”, “TL-6,” for “IL-6,”

spleen and liver = assay: Hematoxylin and eosin (H&E) histology of spleen and liver, LPS-induced endotoxemia mice; type: in vivo, male C57BL/6J mice; details: 50 mg/kg i.p. 3 hours before 20 mg/kg LPS; 3 hours post-LPS
Experimental: The differences in tissue architecture of liver and spleen were assessed using the same cohort of mice as the cytokine analysis at 3 hours post-LPS administration. Prior to tissue harvest, whole-body perfusion was performed post-cardiac blood draw by slowly flushing 10 mL of 37° C. PBS through the left ventricle of the heart while a cut in the right atrium allowed for the flow of blood. The liver and spleen were harvested, placed into tissue cassettes (VWR, Radnor, PA), and fixed overnight in 10% buffered formalin (Sigma-Aldrich, St. Louis, MO). The following day, the organs were paraffin-embedded and sectioned into 5 μm slices. Slides were stained for H&E to define histological architecture using standard procedures.
The differences in tissue architecture of liver and spleens were assessed at 3 hours post-LPS administration. Prior to tissue harvest, whole body perfusion was performed by slowly flushing 10 mL of 37° C. PBS through the left ventricle of the heart while a cut in the right atrium allowed for the flow of blood. The liver and spleen were harvested, placed into tissue cassettes, and fixed overnight in 10% buffered formalin. The following day, the organs were paraffin embedded and sectioned in 5 μm slices. Slides were stained for H&E to define histological architecture using standard procedures.

BMMØs [3] = assay: Western blot analysis of acetyl-histone H3 and acetyl-α-tubulin; details: 10 μM, unstimulated BMMØs, 4 and 9 hours
Experimental: Day 8 BMMØs were seeded at 1×10^6 cells/well in sterile 6-well plates incubated at 37° C. and 5% CO2 overnight to allow for cell adherence. […] Cells were lysed with Halt™ Protease Inhibitor Cocktail (Cat #78429) (Thermo Fisher, Waltham MA) in RIPA Buffer (Cat #R0278) (Sigma-Aldrich, St. Louis, MO) and scraped with a cell scraper (VWR, Radnor, PA). Lysates were sonicated with a ⅛^th needle tip using a Cole-Parmer 500-Watt Ultrasonic Homogenizer at 40% amplitude for 10 seconds on ice. Lysates were then centrifuged at 4° C. for 20 minutes at 12,000×g. The supernatant was collected and frozen at −80° C. until ready for western blot analysis. Protein lysates were produced using 50/50 sample to 2×SDS/PAGE sample buffer. Proteins were then separated by SDS/PAGE and immunoblotted using Histone H3 (D1H2) XP, Acetyl-Histone H3 (lys9/Lys14), α-Tubulin (11H10), Acetyl-α-Tubulin (Lys40) (D20G3) XP and β-Actin as primary antibodies. ECL was used for detection.
Day 8 BMMØs were seeded at 1×10^6 cells/well in sterile 6-well plates incubated at 37° C. and 5% CO2 overnight to allow for cell adherence. […] Cells were lysed with Halt™ Protease Inhibitor Cocktail (Cat #78429) (Thermo Fisher, Waltham MA) in RIPA Buffer (Cat #R0278) (Sigma-Aldrich, St. Louis, MO) and scraped with a cell scraper (VWR, Radnor, PA). Lysates were sonicated with a ⅛th needle tip using a Cole-Parmer 500-Watt Ultrasonic Homogenizer at 40% amplitude for 10 seconds on ice. Lysates were then centrifuged at 4° C. for 20 minutes at 12,000×g. The supernatant was collected and frozen at −80° C. until ready for western blot analysis. Protein lysates were produced using 50/50 sample to 2×SDS/PAGE sample buffer. Proteins were then separated by SDS/PAGE and immunoblotted using Histone H3 (D1H2) XP, Acetyl-Histone H3 (Lys9/Lys14), α-Tubulin (11H10), Acetyl-α-Tubulin (Lys40) (D20G3) XP and β-Actin as primary antibodies. ECL was used for detection.

[4] = tested on: LPS-induced endotoxemia mouse model; assay: Plasma cytokine analysis in the LPS-induced endotoxemia mouse model; type: in vivo, male C57BL/6J mice; details: 50 mg/kg i.p. 3 hours before 20 mg/kg LPS i.p.; blood 3 hours post-LPS
Experimental: Terminal cardiac blood draws from the left ventricle occurred 3 hours post LPS injections using a 25 g needle and 1 mL syringe into an EDTA coated lavender blood collection tube (BD Medical, Franklin Lakes, NJ). Blood samples were centrifuged at 1000×g for 10 minutes within 30 minutes of collection. Plasma was extracted and diluted 10,000-fold for ELISA IL-6 measurement and diluted 10-fold for TNFα measurements.
Terminal cardiac blood draws from the left ventricle occurred 3 hours post LPS injections using a 25 g needle and 1 mL syringe into an EDTA coated lavender blood collection tubes (BD Medical, Franklin Lakes, NJ). Blood samples were centrifuged at 1000×g for 10 minutes within 30 minutes of collection. Plasma was extracted and diluted 10,000-fold for ELISA IL-6 measurement and diluted 10-fold for TNFα measurements. MAGPIX Luminex bead-based multiplex ELISA (Thermo Fisher Scientific, Waltham, MA) of mouse plasma (diluted 100-fold) measured for 26 various cytokines and chemokines and data was analyzed using the Luminex xPONENT software (Millipore) as per manufacturer's instructions. The 26-plex panel include murine IL-1β, IL-2, IL-4, IL-5, IL-6, IL-9, IL-10, IL-12p70, IL-13, IL-17A (CTLA-8), IL-18, IL-22, IL-23, IL-27, GM-CSF, IFNγ, TNFα, MCP-1 (CCL2), MIP-1α (CCL3), MIP-10 (CCL4), RANTES (CCL5), MCP-3 (CCL7), Eotaxin (CCL11), GROα (CXCL1), MIP-2a (CXCL2), and IP-10 (CXCL10).

[5] = tested on: B cells (B220+) isolated from splenocytes; assay: Splenocyte apoptosis and cell death by AV/PI flow cytometry, B cells; type: cell-based
Experimental: Splenocytes were isolated from spleens as previously described. Briefly, 5-12-week C57BL/6J female mice were euthanized and the spleen was isolated. The spleen was processed into single-cell suspensions using a 40 μm cell strainer and flushed with cold PBS supplemented with 1% FBS and 0.4% 0.5 M EDTA (Quality Biological, Gaithersburg, MD). Erythrocytes were lysed with ACK lysis buffer (Quality Biological, Gaithersburg, MD). […] Subsequently, splenocytes were stimulated with 100 ng/mL LPS for 24 hours. Splenocytes were then washed with cold PBS supplemented with 1% FBS and 0.4% 0.5 M EDTA and FcR blocked, as previously mentioned. Splenocytes were then stained with purified anti-mouse PE/Cyanine7 CD45R/B220 antibody (#103222) (BioLegend, San Diego, CA) for the B cell population. SAHA and SAHA-OH apoptosis and cell death were then assessed using the FITC-AV Apoptosis Detection Kit with PI via flow cytometry, as previously mentioned. Flow cytometry data were collected using a Cytex Aurora flow cytometer. Flow plots and data processing was done using FCS Express 7 Flow Cytometry De Novo Software (De Novo, Glendale, CA).

[6] = tested on: T cells (CD3+) from splenocytes; assay: Splenocyte apoptosis and cell death by AV/PI flow cytometry, T cells; type: cell-based; details: concentrations up to 30 μM
HDAC1, 2, 3 = details: comparison value for Tubastatin A; read-out: IC50 against HDAC1, 2, 3; cited from earlier work
[7] = 0-30 μM for 3 hours, then LPS 100 ng/mL 48 hours, ELISA

Row | Compound | apoptosis (AV+/PI−) over concentration (BMMØs [1]; 0-30 μM) | viability (AV−/PI−) over concentration (BMMØs [1]; 0-30 μM) | apoptosis (AV+/PI−) (BMMØs [1]; 10 μM, 48 hours) [%] | cellular viability (AV−/PI−) (BMMØs [1]; 10 μM, 48 hours) [%] | IL-6 cytokine secretion [2, 7] | TNFα cytokine secretion [2, 7] | MCP-1 cytokine secretions ([2]; 10 μM, 3 hours before 48-hour LPS) | secretion of IL-10 ([2]; 10 μM, 3 hours before 48-hour LPS, Luminex, SAHA compared to SAHA-OH) | spleen tissue architecture (H&E) (spleen and liver) | acetylation of α-tubulin (BMMØs [3]) | reduction of plasma IL-6 [4] | reduction of plasma TNFα [4] | toxicity profile for the B cell population ([5]; 0-30 μM) | B cell death (AV+/PI+) ([5]; 10 μM, 24 hours) [%] | B cell viability (AV−/PI−) ([5]; 10 μM, 24 hours) [%] | toxicity for the T cell population [6] | IC50 (HDAC1, 2, 3) [µM]
1 | O=C(CCCCCCC(=O)Nc1ccccc1)NO [SAHA, N^1-hydroxy-N^8-phenyloctanediamide, reference compound] | apoptosis induction | concentration-dependent viability reduction | 96.8 | 3.1 | concentration-dependent reduction | concentration-dependent reduction | non-significantly affected | increased secretion | moderate histological disorganization | similarly resulted in the acetylation | about 50% | about 50% | concentration-dependent toxicity profiles | 54.8 | 9.5 | minimal toxicity | 
